Experimental data: PubChem BioAssay (NCI)
Where “and” joins values, the source holds several entries; their conditions need not be identical. Equal values may be shown once.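 Step 1: Grow cells in 96-well plates. Step 2: Expose to compound for 48 hours at 5 concentrations. Step 3: Interpolate endpoints linearly; if unreached, use highest concentration. GI50 = concentration required for 50% inhibition of growth. TGI is the concentration that stops growth completely.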

Tests used:
Test in all cases: growth of human tumour cells (NCI), 48 h
ACHN renal = test system: ACHN renal
CCRF-CEM leukemia = test system: CCRF-CEM leukemia
HCC-2998 colon = test system: HCC-2998 colon
HCT-116 colon = test system: HCT-116 colon
IGROV1 ovarian = test system: IGROV1 ovarian
MDA-MB-435 = test system: MDA-MB-435
MOLT-4 leukemia = test system: MOLT-4 leukemia
NCI-H460 lung = test system: NCI-H460 lung
SW-620 colon = test system: SW-620 colon
UO-31 renal = test system: UO-31 renal

Row | Structure (SMILES) | GI50 (ACHN renal) | TGI (ACHN renal) [µM] | GI50 (CCRF-CEM leukemia) | TGI (CCRF-CEM leukemia) [µM] | GI50 (HCC-2998 colon) | TGI (HCC-2998 colon) | GI50 (HCT-116 colon) | TGI (HCT-116 colon) [µM] | GI50 (IGROV1 ovarian) | GI50 (MDA-MB-435) | TGI (MDA-MB-435) | GI50 (MOLT-4 leukemia) | TGI (MOLT-4 leukemia) | GI50 (NCI-H460 lung) | TGI (NCI-H460 lung) | GI50 (SW-620 colon) | TGI (SW-620 colon) | GI50 (UO-31 renal) | TGI (UO-31 renal) | TGI (IGROV1 ovarian) [µM]
1 | CCCCCCCCCCCCSC(=N)N | 3.89 µM | 15.9 | 8.4 µM | 26.1 | 2.31 µM | 5.62 µM | 3.86 µM | 14.9 | 2.77 µM | 3.9 µM | 15.3 µM | 2.46 µM | 5.85 µM | 3.42 µM | 13.4 µM | 2.73 µM | 8.14 µM | 5.71 µM | 19.8 µM | 
2 | C=CCC1(O)c2cccc(NCCO)c2C(=O)c2c(NCCO)cccc21 | > 100 µM | > 100 | > 100 µM | > 100 | > 100 µM | > 100 µM | > 100 µM | > 100 | > 100 µM | > 100 µM | > 100 µM | > 100 µM | > 100 µM | > 100 µM | > 100 µM | > 100 µM | > 100 µM | 95.7 µM | > 100 µM | > 100
3 | COc1ccc2c(c1)C(=O)/C(=C/c1ncc([N+](=O)[O-])n1C)O2 | 0.204 µM | 0.596 | 0.141 µM | 0.622 | 1.54 µM | 4.59 µM | 0.176 µM | 0.48 | 0.985 µM | 0.161 µM | 0.323 µM | 0.161 µM | 0.562 µM | 0.934 µM | 7.38 µM | 0.0843 µM | 0.426 µM | 0.494 µM | 2.53 µM | 6.91
4 | O=c1[nH]cnc2[nH]ncc12 | 193 µM | > 5000 | 360 µM | > 5000 | 319 µM | > 5000 µM | 444 µM | > 5000 | 54.6 µM and 422 µM | 380 µM | > 5000 µM | 972 µM | > 5000 µM | 1510 µM | > 5000 µM | 356 µM | > 5000 µM | > 64.9 µM and 525 µM | > 5000 µM | > 5000
5 | C#Cc1c(C(N)=O)ncn1C1OC(COP(=O)(OCc2ccc([N+](=O)[O-])o2)N(C)CCCCCl)C(O)C1O (stereo not given) | 45 µM | > 100 | 21.9 µM | > 100 | 16.2 µM | > 100 µM | 38.2 µM | > 100 | 4.59 µM | 46.2 µM | > 100 µM | 83.7 µM | > 100 µM | 34.1 µM | > 100 µM | 41.4 µM | > 100 µM | 34.8 µM | > 100 µM | > 100
6 | CC(=O)OC1CC2(O)C3CCC4CC(O)CCC4(C)C3CCC2(C)C1C1=CC(=O)OC1 (stereo not given) |  | 0.147 |  | 1.69 |  | 0.39 µM |  | 0.186 |  |  | 0.357 µM |  | 0.0593 µM |  | 0.124 µM |  | 1.41 µM |  | 0.27 µM | 1.77
7 | Cc1cc(Nc2ncnc3ccc(NC4=NC(C)(C)CO4)cc23)ccc1Oc1ccn2ncnc2c1 | 4.48 µM and 9.46 µM | > 100 | 15.6 µM and > 10 µM | > 95.8 | 16.5 µM and > 10 µM | 30.9 µM and > 10 µM | 21.1 µM and > 10 µM | > 80.1 | 12.5 µM and > 10 µM | 16.4 µM and > 10 µM | 36.9 µM and > 10 µM | 14.6 µM and > 10 µM | 42.2 µM and > 10 µM | 17.9 µM and > 10 µM | 39.6 µM and > 10 µM | 20.5 µM and > 10 µM | 41.2 µM and > 10 µM | 6.29 µM and > 10 µM | 84.4 µM and > 10 µM | > 100
8 | COc1ccccc1C#Cc1ccccc1C#CCCCCCC#Cc1ccccc1C#Cc1ccccc1OC | > 100 µM | > 100 | 65.4 µM | > 100 | 18.8 µM | 69.7 µM | 58 µM | > 100 | 77.7 µM | 83.8 µM | > 100 µM | > 100 µM | > 100 µM | > 100 µM | > 100 µM | > 100 µM | > 100 µM | > 100 µM | > 100 µM | > 100
9 | Cc1c(C)[n+](=O)c(C)c(C)n1[O-] | > 100 µM | > 100 | > 100 µM | > 100 | > 100 µM | > 100 µM | > 100 µM | > 100 | > 100 µM | > 100 µM | > 100 µM | > 100 µM | > 100 µM | > 100 µM | > 100 µM | > 100 µM | > 100 µM | > 100 µM | > 100 µM | > 100
10 | S=C1Nc2ccc(Cl)cc2C2(c3ccccc3)N3CCN=C3NN12 (stereo not given) | 55.9 µM | > 100 | 26.9 µM | 70.7 | 67 µM | > 100 µM | 29.4 µM | > 100 | 17.4 µM | 43.2 µM | > 100 µM | 22.8 µM | 61.6 µM | 23.7 µM | 74.7 µM | 29.2 µM | 83.5 µM | 37.5 µM | > 100 µM | 40.9
11 | C=CC1CC12C(=O)C1OC2(C)C2C(=O)c3c(O)ccc(O)c3C(=O)C12 (stereo not given) | 1.77 µM | 4.37 | 1.3 µM | 16 | 13.8 µM | 30.1 µM | 4.66 µM | 9.03 | 3.26 µM | 4.44 µM | 11.1 µM | 0.617 µM | 17 µM | 7.09 µM | 23.7 µM | 2.32 µM | 5.88 µM | 7.83 µM | 25.6 µM | > 100
12 | COc1ccccc1/C=N\N=C(N/N=C/c1ccccc1OC)N/N=C/c1ccccc1OC | 3.14 µM | > 100 | 3.22 µM | > 100 | 3.82 µM | > 100 µM | 3.04 µM | 11.3 |  | 2.36 µM | 6.49 µM | 3.04 µM | 12.1 µM | 2.74 µM | 10.8 µM | 3.38 µM | 13.6 µM | 1.81 µM | 7.25 µM | 
13 | Cc1c2c[n+](C(C)C)ccc2c(C)c2c1[nH]c1ccccc12 | 22.6 µM | > 100 | 3.97 µM | 38.7 | 2.99 µM | 13.7 µM | 4.36 µM | 68.2 |  | 3.2 µM | 13.2 µM | 3.28 µM | 17.8 µM | 2.44 µM | 10.9 µM | 3.63 µM | 49.7 µM | 20.6 µM | > 100 µM | 
